Experimental data: ChEMBL document CHEMBL1201862, “PubChem BioAssay data set” (2004)
Activity calls are given as the source filed them.

Assays:
[1] = IC50 of insulin release inhibition, rat insulinoma INS-1E line, 5 mM glucose, cell-based (AID 1117331); assay type: functional
[2] = A cytotoxicity screen of small molecule inhibitors of the PhoP region in Salmonella typhi identified in the primary screen. [Related pubchem assays: 1850, 1864, 1985 ]; assay type: functional
[3] = viability inhibitors of stage V gametocytes – luminescence, dose response (AID 1117278); assay type: functional, cell-based;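 also: gametocytes exposed to compound for 24 hours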
[4] = viability loss in human Jurkat cells – cell-based, luminescence, cytotoxicity control for P. falciparum gametocyte viability project, dose response (AID 1117277); assay type: functional;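 also: potency reflects loss of cellular ATP meaning fewer viable cells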
Cytochrome P450 2D6 = Cytochrome P450 2D6 (Homo sapiens, UniProt P10635);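 also: CYP2D6 member of a cytochrome P450 panel assay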
Cytochrome P450 1A2 = biological target: T1, Cytochrome P450 1A2 (Homo sapiens, UniProt P05177);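 also: PubChem cytochrome P450 panel assay, CYP1A2 panel member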
T1 sequence (P05177 whole entry): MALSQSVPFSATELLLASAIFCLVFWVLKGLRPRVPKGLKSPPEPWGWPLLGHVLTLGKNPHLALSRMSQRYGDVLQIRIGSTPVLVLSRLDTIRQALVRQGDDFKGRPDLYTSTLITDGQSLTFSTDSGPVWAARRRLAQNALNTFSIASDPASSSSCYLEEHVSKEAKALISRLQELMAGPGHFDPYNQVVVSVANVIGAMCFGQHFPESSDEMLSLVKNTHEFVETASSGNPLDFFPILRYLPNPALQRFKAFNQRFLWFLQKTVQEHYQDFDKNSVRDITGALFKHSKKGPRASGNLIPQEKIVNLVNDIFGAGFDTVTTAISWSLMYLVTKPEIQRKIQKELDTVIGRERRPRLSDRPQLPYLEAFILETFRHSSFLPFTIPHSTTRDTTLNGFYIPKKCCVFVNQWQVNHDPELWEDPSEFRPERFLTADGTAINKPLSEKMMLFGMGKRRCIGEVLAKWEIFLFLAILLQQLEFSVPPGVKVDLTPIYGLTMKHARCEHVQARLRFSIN

Estrogen receptor beta = Estrogen receptor beta (Homo sapiens, UniProt Q92731);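 also: recombinant ER-beta bound to coactivator SRC1 peptide in presence of estradiol agonist; inhibitors block coactivator peptide binding and lower the FRET signal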
Nonstructural protein 1 = Nonstructural protein 1 (Influenza A virus, UniProt Q194T2); assay type: functional, Influenza A virus (A/California/07/2009(H1N1))
[5] = biological target: T2, Apoptotic protease-activating factor 1 (Homo sapiens, UniProt O14727); assay type: functional
T2 sequence (O14727 whole entry): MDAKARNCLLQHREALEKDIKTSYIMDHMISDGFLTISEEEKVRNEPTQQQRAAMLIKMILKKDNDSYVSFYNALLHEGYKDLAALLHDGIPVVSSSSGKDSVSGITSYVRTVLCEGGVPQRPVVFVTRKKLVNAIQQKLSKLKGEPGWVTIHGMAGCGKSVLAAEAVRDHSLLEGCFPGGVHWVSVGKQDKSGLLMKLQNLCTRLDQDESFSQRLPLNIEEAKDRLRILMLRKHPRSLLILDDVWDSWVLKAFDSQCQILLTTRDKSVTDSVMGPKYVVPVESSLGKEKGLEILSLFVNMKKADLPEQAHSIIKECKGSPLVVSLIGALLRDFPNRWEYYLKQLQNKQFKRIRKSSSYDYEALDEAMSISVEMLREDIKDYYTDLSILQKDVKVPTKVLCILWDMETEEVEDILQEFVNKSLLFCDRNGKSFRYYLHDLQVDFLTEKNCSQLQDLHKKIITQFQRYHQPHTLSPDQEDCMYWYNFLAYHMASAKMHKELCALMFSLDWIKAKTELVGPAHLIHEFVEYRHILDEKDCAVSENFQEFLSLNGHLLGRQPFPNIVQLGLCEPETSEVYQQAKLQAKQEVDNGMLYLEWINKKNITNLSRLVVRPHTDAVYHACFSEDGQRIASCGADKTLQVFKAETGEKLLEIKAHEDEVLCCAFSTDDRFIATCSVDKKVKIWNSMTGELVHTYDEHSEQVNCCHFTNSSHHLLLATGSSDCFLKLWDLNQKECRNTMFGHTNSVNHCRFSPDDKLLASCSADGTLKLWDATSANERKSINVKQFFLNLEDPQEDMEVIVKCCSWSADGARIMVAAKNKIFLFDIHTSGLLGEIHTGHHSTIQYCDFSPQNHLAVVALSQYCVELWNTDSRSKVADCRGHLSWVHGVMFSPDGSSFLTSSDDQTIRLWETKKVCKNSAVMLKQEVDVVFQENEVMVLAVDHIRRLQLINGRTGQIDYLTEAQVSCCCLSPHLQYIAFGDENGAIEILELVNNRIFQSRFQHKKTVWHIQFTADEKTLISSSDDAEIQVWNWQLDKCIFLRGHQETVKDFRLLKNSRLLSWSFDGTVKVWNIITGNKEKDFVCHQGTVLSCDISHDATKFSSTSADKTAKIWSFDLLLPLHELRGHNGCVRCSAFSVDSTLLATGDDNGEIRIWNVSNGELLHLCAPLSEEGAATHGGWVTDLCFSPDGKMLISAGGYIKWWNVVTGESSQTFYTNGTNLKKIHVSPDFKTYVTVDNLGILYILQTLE

[6] = biological target: T3, Polyadenylate-binding protein 1 (Homo sapiens, UniProt P11940); test: MLLE binding blockers, Cy5 peptide tracer – biochemical, fluorescence polarization, Cy5-PAM2 peptide, secondary, miRNA deadenylation inhibitor project, dose response (AID 602260); assay type: functional; details: read-out: IC50_Mean
[7] = biological target: T3, Polyadenylate-binding protein 1; test: MLLE domain peptide-binding blockers, IC50 – biochemical, fluorescence polarization, FITC-PAM2 peptide, dose response (AID 602259); assay type: functional; details: read-out: IC50_Mean
Caspase-6 = biological target: T4, Caspase-6 (Homo sapiens, UniProt P55212); test: inhibition of CASP6 peptide cleavage – biochemical, VEID-R110 fluorescence, cherry-pick, dose response (AID 720632)
T4 sequence (P55212 whole entry): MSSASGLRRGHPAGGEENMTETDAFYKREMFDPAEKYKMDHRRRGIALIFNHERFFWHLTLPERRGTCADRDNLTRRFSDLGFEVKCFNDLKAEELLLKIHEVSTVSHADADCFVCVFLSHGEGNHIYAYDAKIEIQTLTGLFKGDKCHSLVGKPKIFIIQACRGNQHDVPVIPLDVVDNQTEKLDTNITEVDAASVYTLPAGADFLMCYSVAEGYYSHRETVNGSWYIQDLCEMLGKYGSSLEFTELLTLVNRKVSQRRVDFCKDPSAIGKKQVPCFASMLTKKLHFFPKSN

Caspase-9 = biological target: T5, Caspase-9 (Homo sapiens, UniProt P55211); test: inhibitors of purified CASP9 protease – biochemical, fluorescence, plate reader, cherry-picked samples, selectivity assay for caspase-6 inhibitor project, dose response (AID 743293)
T5 sequence (P55211 whole entry): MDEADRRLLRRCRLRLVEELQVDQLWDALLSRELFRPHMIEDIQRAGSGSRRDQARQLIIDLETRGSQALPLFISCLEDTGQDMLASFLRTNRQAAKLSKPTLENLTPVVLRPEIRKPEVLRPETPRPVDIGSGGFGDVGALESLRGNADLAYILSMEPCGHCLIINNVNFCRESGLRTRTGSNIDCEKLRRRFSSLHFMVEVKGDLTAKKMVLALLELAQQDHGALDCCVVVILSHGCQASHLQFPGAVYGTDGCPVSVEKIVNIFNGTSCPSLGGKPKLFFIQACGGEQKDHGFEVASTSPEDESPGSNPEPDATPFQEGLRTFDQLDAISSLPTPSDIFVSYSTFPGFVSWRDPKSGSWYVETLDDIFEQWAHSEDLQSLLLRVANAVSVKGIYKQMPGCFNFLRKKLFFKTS

Caspase-8 = Caspase-8 (Homo sapiens, UniProt Q14790); test: inhibitors of purified CASP8 protease – biochemical, Z-IETD-R110 fluorescence, cherry-picked samples, selectivity assay for caspase-6 inhibitor project, dose response (AID 743294)
[8] = biological target: T6, Bifunctional protein GlmU (Mycobacterium tuberculosis, UniProt P9WMN3); test: Inhibitors of Mycobacterial Glucosamine-1-phosphate acetyl transferase (GlmU). Secondary screen.; parameters: species or system Mycobacterium tuberculosis H37Rv
T6 sequence (P9WMN3 whole entry): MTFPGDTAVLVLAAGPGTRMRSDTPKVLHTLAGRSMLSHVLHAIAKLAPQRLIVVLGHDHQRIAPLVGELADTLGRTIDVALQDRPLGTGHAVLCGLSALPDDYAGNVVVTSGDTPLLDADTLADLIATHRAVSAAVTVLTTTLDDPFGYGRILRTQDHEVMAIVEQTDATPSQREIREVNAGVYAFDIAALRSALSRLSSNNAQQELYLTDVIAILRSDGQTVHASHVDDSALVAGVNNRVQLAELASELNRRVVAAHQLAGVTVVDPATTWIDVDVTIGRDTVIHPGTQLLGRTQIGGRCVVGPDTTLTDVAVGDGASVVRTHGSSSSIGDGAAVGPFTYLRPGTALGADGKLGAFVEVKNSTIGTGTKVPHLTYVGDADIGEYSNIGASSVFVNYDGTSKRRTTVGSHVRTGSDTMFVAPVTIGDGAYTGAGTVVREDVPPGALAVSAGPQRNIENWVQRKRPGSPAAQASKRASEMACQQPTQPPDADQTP

[9] = biological target: T7, Microphthalmia-associated transcription factor (Homo sapiens, UniProt O75030); test: reducers of TRPM1 reporter luminescence, concentration series – cell-based, SK-MEL-5, cherry-picked, set 3, MITF inhibitor project, dose response (AID 493073); assay type: functional;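 also: SK-MEL-5 melanoma cells with luciferase driven by the MITF target TRPM1 promoter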
T7 sequence (O75030 whole entry): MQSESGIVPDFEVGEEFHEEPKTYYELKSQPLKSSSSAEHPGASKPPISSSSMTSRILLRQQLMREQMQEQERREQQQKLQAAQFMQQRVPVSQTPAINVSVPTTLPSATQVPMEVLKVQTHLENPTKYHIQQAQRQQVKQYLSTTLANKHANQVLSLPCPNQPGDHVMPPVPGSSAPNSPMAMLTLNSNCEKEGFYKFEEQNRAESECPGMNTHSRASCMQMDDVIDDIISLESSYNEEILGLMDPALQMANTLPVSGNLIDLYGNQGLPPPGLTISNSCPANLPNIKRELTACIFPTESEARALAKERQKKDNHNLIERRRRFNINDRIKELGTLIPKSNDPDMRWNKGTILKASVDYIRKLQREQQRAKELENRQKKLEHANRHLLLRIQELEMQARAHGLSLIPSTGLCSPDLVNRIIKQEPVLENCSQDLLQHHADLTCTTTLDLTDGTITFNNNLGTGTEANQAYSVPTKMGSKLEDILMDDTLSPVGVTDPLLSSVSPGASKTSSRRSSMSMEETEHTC

[10] = biological target: T8, RNA-binding protein pos-1 (Caenorhabditis elegans, UniProt G5EF15); test: disruptors of C. elegans POS-1 RNA interaction – biochemical, fluorescence polarization, dose response (AID 1964);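 also: purified POS-1 fused to maltose binding protein made in E. coli; potency of compounds blocking POS-1 binding to fluorescent RNA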
T8 sequence (G5EF15 whole entry): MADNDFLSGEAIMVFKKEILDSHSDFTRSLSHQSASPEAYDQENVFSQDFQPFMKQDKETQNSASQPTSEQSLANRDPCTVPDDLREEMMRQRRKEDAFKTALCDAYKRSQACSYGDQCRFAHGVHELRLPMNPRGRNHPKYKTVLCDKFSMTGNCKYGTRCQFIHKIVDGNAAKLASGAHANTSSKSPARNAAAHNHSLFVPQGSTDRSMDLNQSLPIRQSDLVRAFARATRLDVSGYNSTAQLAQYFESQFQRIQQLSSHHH

[11] = biological target: T9, Zinc finger protein mex-5 (Caenorhabditis elegans, UniProt Q9XUB2); test: potency of MEX-5 RNA-binding blockers – biochemical, C. elegans, fluorescence polarization, dose response (AID 1960)
T9 sequence (Q9XUB2 whole entry): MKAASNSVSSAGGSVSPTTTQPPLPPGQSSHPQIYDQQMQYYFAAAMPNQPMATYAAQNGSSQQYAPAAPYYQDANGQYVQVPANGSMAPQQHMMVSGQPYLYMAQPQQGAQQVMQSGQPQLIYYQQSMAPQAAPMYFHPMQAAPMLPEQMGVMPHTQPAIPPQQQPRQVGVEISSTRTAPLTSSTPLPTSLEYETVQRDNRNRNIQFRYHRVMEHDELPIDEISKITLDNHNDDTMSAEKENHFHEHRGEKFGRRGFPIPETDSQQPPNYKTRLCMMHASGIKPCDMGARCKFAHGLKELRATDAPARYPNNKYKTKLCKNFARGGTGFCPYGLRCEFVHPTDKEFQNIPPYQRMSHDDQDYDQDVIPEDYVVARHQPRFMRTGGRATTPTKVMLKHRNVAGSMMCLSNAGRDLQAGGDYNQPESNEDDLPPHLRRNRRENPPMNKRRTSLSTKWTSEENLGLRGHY

T3 sequence (P11940 whole entry, the tested form may be a part): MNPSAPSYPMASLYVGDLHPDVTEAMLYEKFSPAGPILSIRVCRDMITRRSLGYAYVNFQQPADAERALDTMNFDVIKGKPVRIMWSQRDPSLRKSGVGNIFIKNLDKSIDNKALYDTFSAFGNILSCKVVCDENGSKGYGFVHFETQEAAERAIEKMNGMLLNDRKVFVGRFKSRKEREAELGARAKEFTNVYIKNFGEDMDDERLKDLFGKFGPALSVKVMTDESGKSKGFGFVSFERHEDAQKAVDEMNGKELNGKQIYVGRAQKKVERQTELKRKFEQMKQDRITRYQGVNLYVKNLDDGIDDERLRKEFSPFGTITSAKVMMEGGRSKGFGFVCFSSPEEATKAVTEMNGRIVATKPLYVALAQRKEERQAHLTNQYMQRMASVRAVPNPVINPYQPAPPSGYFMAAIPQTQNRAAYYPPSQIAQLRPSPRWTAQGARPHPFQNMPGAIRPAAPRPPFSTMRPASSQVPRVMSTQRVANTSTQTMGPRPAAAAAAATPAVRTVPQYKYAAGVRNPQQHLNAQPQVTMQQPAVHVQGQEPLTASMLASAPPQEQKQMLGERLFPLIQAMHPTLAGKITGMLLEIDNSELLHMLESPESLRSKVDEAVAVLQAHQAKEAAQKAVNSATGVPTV
Cytochrome P450 2D6, sequence (P10635 whole entry): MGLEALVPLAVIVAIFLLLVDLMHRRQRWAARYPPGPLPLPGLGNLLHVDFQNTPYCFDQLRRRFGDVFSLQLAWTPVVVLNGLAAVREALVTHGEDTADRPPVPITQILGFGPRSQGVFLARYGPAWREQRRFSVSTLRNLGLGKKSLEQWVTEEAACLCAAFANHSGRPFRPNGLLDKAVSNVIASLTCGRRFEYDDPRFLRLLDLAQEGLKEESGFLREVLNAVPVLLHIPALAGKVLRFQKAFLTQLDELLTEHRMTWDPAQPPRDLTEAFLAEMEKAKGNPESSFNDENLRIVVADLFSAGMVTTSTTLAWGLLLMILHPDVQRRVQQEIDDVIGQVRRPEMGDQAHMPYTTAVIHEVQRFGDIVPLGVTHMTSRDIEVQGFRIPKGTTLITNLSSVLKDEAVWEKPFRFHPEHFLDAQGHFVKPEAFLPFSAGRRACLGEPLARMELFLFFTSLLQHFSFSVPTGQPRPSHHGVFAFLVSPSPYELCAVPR
Estrogen receptor beta, sequence (Q92731 whole entry): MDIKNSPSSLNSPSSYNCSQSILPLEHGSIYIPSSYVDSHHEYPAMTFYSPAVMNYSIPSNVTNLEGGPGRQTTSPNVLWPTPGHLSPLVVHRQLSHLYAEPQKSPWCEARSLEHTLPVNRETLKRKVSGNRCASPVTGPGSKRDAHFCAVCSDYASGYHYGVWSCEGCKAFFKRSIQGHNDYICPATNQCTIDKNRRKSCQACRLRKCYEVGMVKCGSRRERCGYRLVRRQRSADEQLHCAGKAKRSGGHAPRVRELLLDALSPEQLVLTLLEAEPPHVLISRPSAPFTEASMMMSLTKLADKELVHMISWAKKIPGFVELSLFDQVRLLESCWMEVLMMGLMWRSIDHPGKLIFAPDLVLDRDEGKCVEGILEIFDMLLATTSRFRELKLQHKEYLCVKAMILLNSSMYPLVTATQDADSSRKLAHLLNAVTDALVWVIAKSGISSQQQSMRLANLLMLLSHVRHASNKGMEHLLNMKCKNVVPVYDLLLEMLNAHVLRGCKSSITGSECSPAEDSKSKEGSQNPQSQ
Caspase-8, sequence (Q14790 217-374 limits assumed): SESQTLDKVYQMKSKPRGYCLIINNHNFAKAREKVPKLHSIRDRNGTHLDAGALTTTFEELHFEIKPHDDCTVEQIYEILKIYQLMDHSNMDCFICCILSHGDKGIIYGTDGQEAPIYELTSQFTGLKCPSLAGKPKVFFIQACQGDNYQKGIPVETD
Caspase-8, sequence (Q14790 385-479 limits assumed): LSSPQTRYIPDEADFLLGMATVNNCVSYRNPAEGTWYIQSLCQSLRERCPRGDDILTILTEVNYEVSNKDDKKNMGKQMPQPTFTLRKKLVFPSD
Nonstructural protein 1, sequence (Q194T2 whole entry): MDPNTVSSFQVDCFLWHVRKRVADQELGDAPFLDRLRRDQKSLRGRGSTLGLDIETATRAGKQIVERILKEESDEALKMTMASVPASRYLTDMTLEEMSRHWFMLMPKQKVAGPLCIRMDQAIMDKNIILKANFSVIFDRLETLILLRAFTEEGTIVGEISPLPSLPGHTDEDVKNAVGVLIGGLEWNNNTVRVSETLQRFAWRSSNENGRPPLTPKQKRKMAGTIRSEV

CCC1=C(C)CN(C(=O)NCCc2ccc(S(=O)(=O)NC(=O)N[C@H]3CC[C@H](C)CC3)cc2)C1=O [GLIMEPIRIDE]
IC50 [1]: 0.00406 µM (active)

CCOC(=O)CSc1nnc2c(n1)C1(C)CCC2C1(C)C (centres undefined)
EC50 [2]: > 50 µM (active)
IC50 [3]: > 109 µM (inactive)
IC50 [4]: > 83.2 µM (inactive)

Cn1c(SCC(=O)N2CCCCC2)nnc1-c1ccc(S(=O)(=O)N2CCOCC2)cc1
IC50 [3]: > 109 µM (inactive)
IC50 [4]: > 83.3 µM (inactive)

CC1CCN(C(=O)CSc2ccc(-c3ccc(F)cc3)nn2)CC1
IC50 [3]: > 109 µM (inactive)
IC50 [4]: > 83.3 µM (inactive)

CCN(CC)CCOc1ccc(Cc2ccccc2)cc1
IC50 [1]: > 33.3 µM (inactive)
AC50 (Cytochrome P450 2D6): 25.1 µM (inconclusive)
AC50 (Cytochrome P450 1A2): 12.6 µM (inconclusive)

COC(=O)C(O)(c1ccc(N(C)C(=O)OC(C)C)cc1)C(F)(F)F (centres undefined)
IC50 (Estrogen receptor beta): > 50 µM (not active)

Oc1cc(NCCc2cccnc2)cc2cccnc12
IC50 (Nonstructural protein 1): 6.64 µM (active)
IC50 [5]: 18.4 µM (active)
IC50 [6]: > 66 µM (inactive)
IC50 [7]: 42.3 µM (inactive)
AC50 (Caspase-6): 2.89 µM (active)
AC50 (Caspase-9): > 70 µM (inactive)
AC50 (Caspase-8): 30.1 µM (active)

Cc1nn(-c2ccccc2Cl)c(Cl)c1/C=N/Nc1cccc(C(=O)O)c1
IC50 [8]: 137 µM (active)
AC50 [9]: 5.5 µM (active)

COc1ccccc1N1C(=O)C(Cl)=C(Nc2ccccc2O)C1=O
EC50 [10]: 34.7 µM (active)
EC50 [11]: 8.19 µM (inconclusive)
IC50 [8]: 90.9 µM (active)
